The values that follow come from ChEMBL document CHEMBL1201862, “PubChem BioAssay data set” (2004).

Activity calls are given as the source filed them.

The test system of data set [1] is Streptococcus. Briefly: Group A Streptococcus viability loss, dose response, counter-screen for streptokinase expression inhibitor project, luminescence, BacTiterGlo (AID 1915).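 Also: potency for reduction of bacterial viability or growth.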 It counts as functional, organism-based. In general terms: The purpose of a counterscreen is to sort out artefacts and off-target activity.
The target in data set [2] is Troponin, cardiac muscle (Homo sapiens, UniProt P19429+P45379+P63316). The data set is described as follows: Fluorescence-based biochemical high throughput dose response assay for activators of the calcium sensitivity of cardiac Regulated Thin Filaments (RTF). [Related pubchem assays (depositor defined):AID493008, AID493018, AID504382, AID504383]. It counts as protein-complex assay.

For data set [3], the system named is Streptococcus sp. 'group A'. Briefly: growth inhibition of control SK(-) GAS strain, dose response, counter-screen for streptokinase expression inhibitor project, luminescence, kanamycin, BacTiterGlo, confirmation (AID 1900). It counts as functional, organism-based.
The target of data set [4] is T1, Streptokinase A (Streptococcus pyogenes serotype M1, UniProt P10520).
T1 sequence (P10520 whole entry): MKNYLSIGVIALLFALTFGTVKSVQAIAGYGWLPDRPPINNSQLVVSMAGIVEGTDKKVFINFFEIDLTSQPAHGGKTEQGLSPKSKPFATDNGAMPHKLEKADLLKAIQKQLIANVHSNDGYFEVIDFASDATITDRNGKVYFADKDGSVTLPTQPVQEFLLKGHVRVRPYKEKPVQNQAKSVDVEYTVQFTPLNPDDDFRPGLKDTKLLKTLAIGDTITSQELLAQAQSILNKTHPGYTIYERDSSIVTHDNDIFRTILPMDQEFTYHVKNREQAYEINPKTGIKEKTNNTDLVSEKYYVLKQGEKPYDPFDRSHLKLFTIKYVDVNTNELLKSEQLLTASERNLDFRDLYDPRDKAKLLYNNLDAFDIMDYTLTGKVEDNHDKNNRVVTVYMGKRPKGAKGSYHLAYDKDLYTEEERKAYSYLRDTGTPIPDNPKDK
The data set is described as follows: S. pyogenes streptokinase expression inhibitors, potency, dose response, plasminogen activation absorbance, OD405 (AID 1914).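 Also: secreted streptokinase activity via plasminogen activation per viability signal from cell pellet.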 It counts as functional, Streptococcus pyogenes M1 GAS.

In data set [5] the target is Intestinal-type alkaline phosphatase (Homo sapiens, UniProt P09923). The data set is described as follows: inhibition of human intestinal alkaline phosphatase – biochemical, dose response (AID 488876). It counts as functional.
Data set [6] has as its target T2, Alkaline phosphatase, tissue-nonspecific isozyme (Homo sapiens, UniProt P05186).
T2 sequence (P05186 whole entry): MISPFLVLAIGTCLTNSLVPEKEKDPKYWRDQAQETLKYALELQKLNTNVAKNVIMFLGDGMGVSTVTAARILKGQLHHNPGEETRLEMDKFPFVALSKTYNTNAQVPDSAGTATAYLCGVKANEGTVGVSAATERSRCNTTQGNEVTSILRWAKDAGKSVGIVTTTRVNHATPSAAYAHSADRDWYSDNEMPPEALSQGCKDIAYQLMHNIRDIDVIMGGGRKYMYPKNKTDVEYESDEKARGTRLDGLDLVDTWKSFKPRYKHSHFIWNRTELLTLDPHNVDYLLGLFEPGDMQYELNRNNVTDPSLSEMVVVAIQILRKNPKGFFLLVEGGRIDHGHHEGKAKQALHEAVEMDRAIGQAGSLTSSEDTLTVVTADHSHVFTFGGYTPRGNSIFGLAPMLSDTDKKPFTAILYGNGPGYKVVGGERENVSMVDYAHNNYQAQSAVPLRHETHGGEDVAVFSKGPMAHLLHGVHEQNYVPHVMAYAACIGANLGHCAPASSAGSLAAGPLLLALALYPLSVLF
The data set is described as follows: TNAP enzyme inhibition by screening hits, dose response, selectivity assay for mouse IAP inhibitor project, biochemical, human TNAP, uHTS hits (AID 488906). It counts as functional.

In data set [7] the target is Intestinal-type alkaline phosphatase (Mus musculus, UniProt P24822). The data set is described as follows: PubChem AID 488785. Type of data set: functional.
Data set [8] has as its target 5-hydroxytryptamine receptor 5A (Homo sapiens, UniProt P47898). The data set is described as follows: Counterscreen for agonists of OPRM1-OPRD1 heterodimerization: luminescence-based cell-based high throughput dose response assay to identify agonists of 5-hydroxytryptamine (serotonin) 5A receptor (HTR5A). [Related pubchem assays (depositor defined):AID504326, AID504355, AID504692, AID504904, AID504905]. It counts as functional.

The target in data set [9] is Mu-type opioid receptor (Homo sapiens, UniProt P35372). The data set is described as follows: Counterscreen for agonists of heterodimerization of the mu 1 (OPRM1) and delta 1 (OPRD1) opioid receptors: Luminescence-based cell-based high throughput dose response assay to identify agonists of OPRM1 homodimerization. It counts as functional.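 Also: U2OS cells expressing OPRM1 and beta-arrestin as split beta-galactosidase partners.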
For data set [10], the target named is Delta-type opioid receptor (Homo sapiens, UniProt P41143). The data set is described as follows: Counterscreen for agonists of heterodimerization of the mu 1 (OPRM1) and delta 1 (OPRD1) opioid receptors: Luminescence-based cell-based high throughput dose response assay to identify agonists of OPRD1 homodimerization. [Related pubchem assays (depositor defined):AID504326, AID504355, AID504692, AID504904, AID504905]. It counts as functional.

The target in data set [11] is G-protein coupled receptor 55 (Homo sapiens, UniProt Q9Y2T6). Briefly: GPR55 antagonists blocking LPI-driven arrestin recruitment, primary screen, imaging, U2OS, beta-arrestin-GFP, LPI agonist (AID 2013).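 Also: antagonist potency measured as reduced agonist-driven arrestin aggregation.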 It counts as functional. (In general: Activated receptors often draw arrestin, which recruitment assays turn into a signal.)
Data set [12] addresses T3, Voltage-gated N-type calcium channel alpha-1B subunit/Amyloid beta A4 precursor protein-binding family A member 1 (Homo sapiens, UniProt Q00975+Q02410). It counts as protein assay.
In data set [13] the target is T3, Voltage-gated N-type calcium channel alpha-1B subunit/Amyloid beta A4 precursor protein-binding family A member 1. It counts as protein assay. The source holds these as a separate data set.
Data set [14] has as its target Cytochrome P450 2C9 (Homo sapiens, UniProt P11712).
The target of data set [15] is T4, Bcl-2-related protein A1 (Mus musculus, UniProt Q07440).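 Also: confirmatory dose–response counterscreen on Bfl-1, used to check hits from a UBC13 polyubiquitin inhibitor campaign.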
T4 sequence (Q07440 whole entry): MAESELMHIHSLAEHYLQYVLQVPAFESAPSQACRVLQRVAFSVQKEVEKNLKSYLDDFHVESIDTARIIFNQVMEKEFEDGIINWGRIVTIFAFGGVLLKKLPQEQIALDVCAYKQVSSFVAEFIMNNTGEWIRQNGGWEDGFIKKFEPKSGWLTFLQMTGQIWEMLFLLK
Type of data set: functional.

Data set [16] has as its target T5, Ubiquitin-conjugating enzyme E2 N (Homo sapiens, UniProt P61088).
T5 sequence (P61088 whole entry): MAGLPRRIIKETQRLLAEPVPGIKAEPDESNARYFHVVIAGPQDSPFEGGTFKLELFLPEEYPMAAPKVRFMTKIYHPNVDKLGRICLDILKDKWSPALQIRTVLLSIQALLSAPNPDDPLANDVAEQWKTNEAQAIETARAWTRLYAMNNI
It counts as functional.

Data set [17] has as its target T5, Ubiquitin-conjugating enzyme E2 N. Type of data set: functional. The source holds these as a separate data set.
Data set [18] addresses Cytochrome P450 2D6 (Homo sapiens, UniProt P10635).
The target in data set [19] is Nonstructural protein 1 (Influenza A virus, UniProt Q194T2). Type of data set: functional, Influenza A virus (A/California/07/2009(H1N1)).
Data set [20] has as its target T6, DNA repair protein RAD52 homolog (Homo sapiens, UniProt P43351).
T6 sequence (P43351 whole entry): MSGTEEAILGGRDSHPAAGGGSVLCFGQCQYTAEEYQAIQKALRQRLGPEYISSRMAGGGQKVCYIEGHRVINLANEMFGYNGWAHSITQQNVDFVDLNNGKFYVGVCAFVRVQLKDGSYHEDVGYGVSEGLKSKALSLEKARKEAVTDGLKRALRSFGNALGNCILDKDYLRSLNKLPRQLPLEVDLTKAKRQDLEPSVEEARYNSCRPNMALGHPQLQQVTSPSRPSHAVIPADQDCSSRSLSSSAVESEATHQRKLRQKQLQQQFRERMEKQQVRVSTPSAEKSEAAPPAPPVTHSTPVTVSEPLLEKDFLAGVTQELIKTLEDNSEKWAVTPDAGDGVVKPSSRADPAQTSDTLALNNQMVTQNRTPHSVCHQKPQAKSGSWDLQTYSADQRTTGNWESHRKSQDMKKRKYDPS
Type of data set: functional, biochemical.

Data set [21] concerns the target T7, SUMO-activating enzyme (Homo sapiens, UniProt Q9UBT2). Briefly: SUMOylation inhibitor hit validation, confirmation, SUMOylation inhibitor project, biochemical, AlphaScreen (AID 2018). It counts as functional.
Data set [22] concerns the target T7, SUMO-activating enzyme. The data set is described as follows: inhibitors of in vitro SUMOylation cascade, primary screen, biochemical, HTRF, uHTS (AID 2006). Type of data set: protein-complex assay. A general note: TR-FRET usually uses a lanthanide donor and a delayed reading to cut background.
Data set [23] in a line: HIV-1 Env-mediated cell fusion inhibitors, dose response, CCR5-tropic Env (AID 2279). It counts as functional.

G-protein coupled receptor 55, sequence (Q9Y2T6 whole entry): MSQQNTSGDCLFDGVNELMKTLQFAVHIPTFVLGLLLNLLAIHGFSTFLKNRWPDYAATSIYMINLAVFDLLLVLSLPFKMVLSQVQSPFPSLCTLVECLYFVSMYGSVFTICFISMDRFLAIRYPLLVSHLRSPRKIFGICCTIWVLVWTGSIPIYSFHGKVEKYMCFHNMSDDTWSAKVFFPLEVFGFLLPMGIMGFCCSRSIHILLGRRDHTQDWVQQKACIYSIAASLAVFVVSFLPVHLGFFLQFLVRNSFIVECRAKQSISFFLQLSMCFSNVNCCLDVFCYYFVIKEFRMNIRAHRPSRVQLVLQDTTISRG
Cytochrome P450 2C9, sequence (P11712 whole entry): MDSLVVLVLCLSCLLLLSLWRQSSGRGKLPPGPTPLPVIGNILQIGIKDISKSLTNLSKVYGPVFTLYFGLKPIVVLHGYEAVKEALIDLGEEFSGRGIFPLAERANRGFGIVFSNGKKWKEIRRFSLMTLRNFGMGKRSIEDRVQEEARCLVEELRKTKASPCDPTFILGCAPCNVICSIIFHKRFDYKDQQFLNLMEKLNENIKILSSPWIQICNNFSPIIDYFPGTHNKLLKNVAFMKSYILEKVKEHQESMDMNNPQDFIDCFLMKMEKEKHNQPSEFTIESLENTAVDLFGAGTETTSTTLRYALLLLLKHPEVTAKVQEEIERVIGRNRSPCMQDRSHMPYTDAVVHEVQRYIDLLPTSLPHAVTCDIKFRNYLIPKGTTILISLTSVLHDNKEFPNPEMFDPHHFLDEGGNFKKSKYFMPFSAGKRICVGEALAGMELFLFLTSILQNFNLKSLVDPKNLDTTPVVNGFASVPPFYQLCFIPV
Intestinal-type alkaline phosphatase (Homo sapiens, UniProt P09923), sequence (P09923 whole entry): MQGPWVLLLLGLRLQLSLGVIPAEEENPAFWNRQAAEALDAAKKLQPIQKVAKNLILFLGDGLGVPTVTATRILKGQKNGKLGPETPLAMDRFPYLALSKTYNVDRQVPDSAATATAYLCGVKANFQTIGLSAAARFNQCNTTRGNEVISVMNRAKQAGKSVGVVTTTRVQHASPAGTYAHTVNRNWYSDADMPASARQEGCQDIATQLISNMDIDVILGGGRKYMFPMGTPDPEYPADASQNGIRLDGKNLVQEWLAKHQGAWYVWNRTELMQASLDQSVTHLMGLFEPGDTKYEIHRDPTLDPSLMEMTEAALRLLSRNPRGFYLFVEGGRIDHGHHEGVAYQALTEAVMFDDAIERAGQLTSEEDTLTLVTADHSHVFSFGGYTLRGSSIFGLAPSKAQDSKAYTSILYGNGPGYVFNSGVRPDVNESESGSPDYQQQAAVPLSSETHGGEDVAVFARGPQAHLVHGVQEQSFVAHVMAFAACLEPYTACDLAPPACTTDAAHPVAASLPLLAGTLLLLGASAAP
Intestinal-type alkaline phosphatase (Mus musculus, UniProt P24822), sequence (P24822 whole entry): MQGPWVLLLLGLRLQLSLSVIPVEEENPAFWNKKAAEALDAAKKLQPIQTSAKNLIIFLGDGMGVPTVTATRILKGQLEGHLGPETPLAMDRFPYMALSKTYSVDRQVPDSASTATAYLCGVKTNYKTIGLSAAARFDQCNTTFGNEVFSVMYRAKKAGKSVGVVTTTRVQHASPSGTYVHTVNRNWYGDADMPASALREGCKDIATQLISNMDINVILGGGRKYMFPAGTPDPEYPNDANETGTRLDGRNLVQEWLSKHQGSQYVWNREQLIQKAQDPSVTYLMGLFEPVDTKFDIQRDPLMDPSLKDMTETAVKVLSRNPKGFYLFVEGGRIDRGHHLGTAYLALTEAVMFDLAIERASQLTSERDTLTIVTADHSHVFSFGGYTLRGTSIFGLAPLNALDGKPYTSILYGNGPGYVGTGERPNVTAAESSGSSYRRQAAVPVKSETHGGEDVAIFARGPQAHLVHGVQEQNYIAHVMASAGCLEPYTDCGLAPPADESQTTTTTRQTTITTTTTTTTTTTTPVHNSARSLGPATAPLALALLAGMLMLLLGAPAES
T7 sequence (Q9UBE0 whole entry): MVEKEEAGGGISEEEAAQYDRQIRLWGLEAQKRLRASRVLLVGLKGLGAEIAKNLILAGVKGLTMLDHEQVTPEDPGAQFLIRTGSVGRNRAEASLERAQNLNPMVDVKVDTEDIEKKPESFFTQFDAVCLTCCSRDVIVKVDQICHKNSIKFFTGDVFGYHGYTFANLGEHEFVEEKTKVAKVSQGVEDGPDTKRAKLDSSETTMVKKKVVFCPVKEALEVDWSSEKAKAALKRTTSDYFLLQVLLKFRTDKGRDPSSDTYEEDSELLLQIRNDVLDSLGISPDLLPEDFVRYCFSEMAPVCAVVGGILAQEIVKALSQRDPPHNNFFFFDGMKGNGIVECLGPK
T7 sequence (Q9UBT2 whole entry): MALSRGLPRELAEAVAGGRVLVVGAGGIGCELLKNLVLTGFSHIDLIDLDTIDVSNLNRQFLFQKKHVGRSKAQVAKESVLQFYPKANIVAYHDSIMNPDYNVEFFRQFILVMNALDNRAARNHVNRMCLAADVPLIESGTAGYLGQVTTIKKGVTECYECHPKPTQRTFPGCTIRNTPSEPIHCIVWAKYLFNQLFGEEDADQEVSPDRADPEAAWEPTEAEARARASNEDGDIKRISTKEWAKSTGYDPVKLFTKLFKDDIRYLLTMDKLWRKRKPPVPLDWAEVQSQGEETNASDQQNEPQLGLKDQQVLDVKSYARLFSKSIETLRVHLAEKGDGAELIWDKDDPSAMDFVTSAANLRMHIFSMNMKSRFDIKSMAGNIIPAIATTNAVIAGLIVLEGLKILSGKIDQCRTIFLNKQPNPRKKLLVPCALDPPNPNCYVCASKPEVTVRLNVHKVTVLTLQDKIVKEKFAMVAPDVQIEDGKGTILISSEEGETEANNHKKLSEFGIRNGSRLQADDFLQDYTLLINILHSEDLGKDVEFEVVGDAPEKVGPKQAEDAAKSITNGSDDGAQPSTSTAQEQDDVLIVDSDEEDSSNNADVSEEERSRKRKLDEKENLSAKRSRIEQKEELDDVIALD
Cytochrome P450 2D6, sequence (P10635 whole entry): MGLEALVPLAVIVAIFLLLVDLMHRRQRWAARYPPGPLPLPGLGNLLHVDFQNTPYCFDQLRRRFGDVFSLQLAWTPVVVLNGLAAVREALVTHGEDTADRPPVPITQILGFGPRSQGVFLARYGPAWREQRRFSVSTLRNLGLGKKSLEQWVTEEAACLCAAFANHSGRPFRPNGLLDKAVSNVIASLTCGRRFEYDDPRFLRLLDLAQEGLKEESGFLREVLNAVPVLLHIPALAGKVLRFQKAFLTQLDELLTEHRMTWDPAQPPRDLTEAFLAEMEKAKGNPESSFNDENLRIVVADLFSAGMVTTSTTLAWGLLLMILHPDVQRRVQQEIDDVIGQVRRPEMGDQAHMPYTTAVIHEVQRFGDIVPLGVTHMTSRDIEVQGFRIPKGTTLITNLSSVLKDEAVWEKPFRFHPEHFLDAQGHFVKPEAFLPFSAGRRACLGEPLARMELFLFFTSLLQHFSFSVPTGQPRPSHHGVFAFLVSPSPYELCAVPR
Delta-type opioid receptor, sequence (P41143 whole entry): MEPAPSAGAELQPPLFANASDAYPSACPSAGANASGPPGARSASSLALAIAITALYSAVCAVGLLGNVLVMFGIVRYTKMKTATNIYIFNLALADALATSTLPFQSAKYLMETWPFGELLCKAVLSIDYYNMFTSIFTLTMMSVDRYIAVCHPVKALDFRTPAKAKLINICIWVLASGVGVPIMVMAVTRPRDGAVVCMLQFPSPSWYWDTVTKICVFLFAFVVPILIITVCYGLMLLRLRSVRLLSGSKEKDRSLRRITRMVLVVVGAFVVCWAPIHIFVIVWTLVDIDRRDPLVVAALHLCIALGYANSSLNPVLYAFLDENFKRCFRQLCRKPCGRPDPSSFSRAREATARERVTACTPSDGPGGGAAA
5-hydroxytryptamine receptor 5A, sequence (P47898 whole entry): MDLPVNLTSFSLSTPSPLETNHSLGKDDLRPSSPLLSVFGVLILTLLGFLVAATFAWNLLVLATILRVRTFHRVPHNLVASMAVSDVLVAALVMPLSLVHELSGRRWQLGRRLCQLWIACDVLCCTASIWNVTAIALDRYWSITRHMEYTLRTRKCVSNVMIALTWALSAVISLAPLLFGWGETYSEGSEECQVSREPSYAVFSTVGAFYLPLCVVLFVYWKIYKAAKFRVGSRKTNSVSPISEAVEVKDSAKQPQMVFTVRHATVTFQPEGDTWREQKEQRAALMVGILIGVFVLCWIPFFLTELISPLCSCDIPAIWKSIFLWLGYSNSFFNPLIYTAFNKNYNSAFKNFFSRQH
Mu-type opioid receptor, sequence (P35372 whole entry): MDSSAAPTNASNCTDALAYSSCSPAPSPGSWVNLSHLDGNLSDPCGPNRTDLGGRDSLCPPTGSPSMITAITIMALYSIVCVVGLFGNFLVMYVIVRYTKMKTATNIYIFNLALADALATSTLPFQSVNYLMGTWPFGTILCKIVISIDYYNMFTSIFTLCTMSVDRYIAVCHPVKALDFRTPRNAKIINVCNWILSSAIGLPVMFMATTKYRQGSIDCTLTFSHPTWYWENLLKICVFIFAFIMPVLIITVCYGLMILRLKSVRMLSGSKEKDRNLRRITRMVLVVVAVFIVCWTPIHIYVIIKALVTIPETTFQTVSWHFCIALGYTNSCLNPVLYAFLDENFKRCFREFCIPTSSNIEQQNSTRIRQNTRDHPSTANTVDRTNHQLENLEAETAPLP
Nonstructural protein 1, sequence (Q194T2 whole entry): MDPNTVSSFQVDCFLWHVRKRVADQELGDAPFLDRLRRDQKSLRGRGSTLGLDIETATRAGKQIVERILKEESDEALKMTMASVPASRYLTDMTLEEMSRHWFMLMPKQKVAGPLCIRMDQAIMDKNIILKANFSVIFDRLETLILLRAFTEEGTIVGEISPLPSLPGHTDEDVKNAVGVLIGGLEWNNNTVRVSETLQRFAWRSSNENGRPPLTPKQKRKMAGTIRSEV

For orientation: EC50 means the concentration giving half of the maximal effect. Take `Cc1cc(/C=C2\SC(=S)N(C)C2=O)c(C)n1-c1ccccc1O`: the EC50 in data set [1] is 16.1 µM (active); in data set [2], 4.96 µM (active); in data set [3] it was 8.37 µM (active); in data set [4] it was 17.8 µM (active).
In general, IC50 refers to the midpoint of a concentration-inhibition curve. For `O=C1NN(c2cccc(Br)c2)C(=O)/C1=C/c1ccc(-c2cc([N+](=O)[O-])ccc2O)o1`, the figures for the IC50 in data set [5], in data set [6] and in data set [7] were > 100 µM (inactive), > 100 µM (inactive) and 4.7 µM (active), respectively.
`CCN1CCN(c2ccc([N+](=O)[O-])c(Sc3nc4ccccc4[nH]3)c2)CC1`: the EC50 in data set [8] is > 92.5 µM (inactive); in [9], > 92.5 µM (inactive); in data set [10], 4.1 µM (active).
With `COc1cc(Br)c(-c2sc(Nc3ccccc3)n[n+]2-c2ccc(F)cc2)cc1OC`, the IC50 in data set [11] was 11.9 µM (inactive).
For the compound `Cc1ccc(/C=C2\SC(=S)N(CCC(=O)NNC(=O)c3cccc(O)c3)C2=O)cc1`, the results for the IC50 in [12] and in [13] were > 50 µM (inactive) and 16 µM (active), respectively.
As usually defined, the AC50 is the concentration at which the activity in the assay is half-maximal. `Cc1cc(C)c(NC(=O)NC(=O)c2ccc(F)cc2)c(C)n1`: the AC50 result in [14] is listed as “inconclusive”.
Consider `Cc1[nH]c(=S)c(C#N)c(-c2ccccc2)c1C(=O)Nc1ccccc1`, for which the IC50 in [15] was > 20 µM (inactive); in data set [16] it was > 20 µM (inactive); in data set [17], 13.9 µM (active).
Consider `CC12CNCC(C)(CN(C(c3ccccc3)c3ccccc3)C1)C2`, for which the IC50 in data set [11] was 5.62 µM (active).
On to `COc1ccc(CNc2ccnc(-c3cccc(NS(C)(=O)=O)c3)n2)c(OC)c1`, for which the AC50 result was “inconclusive” in data set [14] and 12.6 µM (inconclusive) in data set [18].
As for `N#Cc1c(SCC(=O)Nc2nc3ccccc3s2)sc2c(O)cc(O)nc12`, the IC50 in [5] is > 100 µM (inactive); in data set [6] it was > 100 µM (inactive); in [7], 18.8 µM (active).
In the case of `O=C(CSc1nnc2sc3ccccc3n12)NCc1ccco1`, the AC50 entry in data set [14] is “inconclusive”.
Turning to `O=C(/C=C/c1ccco1)NC(=S)Nc1ccccc1N1CCOCC1`, the IC50 in data set [11] was 4.57 µM (active).
In the case of `O=C(CCNC(=O)c1ccccc1Cl)Nc1nc2ccccc2s1`, the IC50 in [15] is > 20 µM (inactive); in [16], 8.02 µM (active); in data set [17], 6.15 µM (active).
For `CN(C)CCCNC(=O)c1ccc(-c2cc(O)c3ncccc3c2)cc1`, the IC50 in [19] is 4.25 µM (active); in data set [15], 7.49 µM (active); in [16], 3.15 µM (active); in data set [17], 3.89 µM (active). Moreover, the AC50 in data set [20] was 0.849 µM (active).
With `CCn1cc(C(=O)NCCC(=O)NCCO)c(=O)c2cc3c(cc21)OCO3`, in [2], the EC50 was > 71.4 µM (inactive).
Regarding `CCOC(=O)C1=C(C)N=c2s/c(=C\c3ccc(OCC(=O)O)cc3)c(=O)n2C1c1ccc(OC(C)C)cc1` (stereo not drawn), the IC50 is 10.1 µM (active) in data set [21], 26 µM (active) in [22] and 35.2 µM (active) in data set [23].
`CCN(CC)c1ccc(/C=c2\sc3nnc(-c4ccccc4Cl)n3c2=O)cc1`: the EC50 in data set [2] was 0.191 µM (active).
